The values that follow come from PubChem BioAssay AID1996.

Structures are written as SMILES. ≈ marks a conversion by molar mass, not a printed value.

For this data set the following is noted: buffer; pH 7.4; 200.0 µM.
`Cl.O=C(Nc1ncccc1Cl)c1ccc2c(c1)OCCO2` showed a kinetic solubility of 37 µg/mL.

The compound `COC(=O)c1c(NC(=O)C(Cl)Cl)sc2c1C(C(=O)OC)CC2` (stereo not given) gave a solubility (kinetic) of 8.6 µg/mL (≈ 23.5 µM).

For `CN(C)S(=O)(=O)c1ccc(Cl)c(NC(=O)COC(=O)CCC2CCCCC2)c1`, the kinetic solubility is 7.3 µg/mL (≈ 16.9 µM).

On to `Cn1cnnc1SCC(=O)NC1CCCC1`, for which the solubility (kinetic) is over 36 µg/mL.

For `Cc1cc(=O)oc2cc(OCC(=O)NCC3CCC(C(=O)O)CC3)ccc12` (stereo not given), the solubility (kinetic) is over 56 µg/mL.

In turn, `COc1ccc(NC2(c3ccccc3)OC(=O)c3ccccc32)cc1` (stereo not given) yielded a kinetic solubility of 1.5 µg/mL (≈ 4.53 µM).

Consider `O=C(NCc1cccnc1)C1CC(c2ccccc2Cl)=NO1` (stereo not given), for which the kinetic solubility is over 47.4 µg/mL.

For the compound `CSc1ccccc1NC(=O)C1CCCN(S(C)(=O)=O)C1` (stereo not given), the solubility (kinetic) is over 49.3 µg/mL.

In turn, `COC(=O)C1CCC(=S)N1C(=O)c1ccccc1` (stereo not given) registered a kinetic solubility of over 39.5 µg/mL.

As for `CCN(c1ccccc1)S(=O)(=O)c1ccc(C(=O)Nc2cccc(NC(C)=O)c2)cc1`, the kinetic solubility was 3.7 µg/mL (≈ 8.46 µM).

`O=C(NCc1cccs1)C1CC(=O)N(c2ccc(Cl)cc2)C1` (stereo not given) had a solubility (kinetic) of 11.9 µg/mL (≈ 35.5 µM).

Consider `O=C(O)CC(C(=O)Nc1ccc(F)cc1)C1CCCO1` (stereo not given), for which the kinetic solubility was over 42.2 µg/mL.

In turn, `CC(C(=O)Nc1ccccc1)N1C(=O)c2ccccc2C1=O` (stereo not given) displayed a solubility (kinetic) of over 44.1 µg/mL.

`CCc1ccc(NC(=O)c2cc(Br)ccc2Br)cc1` yielded a solubility (kinetic) of under 0.8 µg/mL.

In turn, `CCc1cccc(CC)c1NC(=O)CSc1nnc(C2CC2)n1C` came in with a kinetic solubility of over 51.7 µg/mL.

With `COc1ccccc1Nc1nc(Cl)nc(Nc2ccccc2OC)n1`, the kinetic solubility was under 0.2 µg/mL.

For the compound `CC(C)(C)C(=O)Nc1cc2c3c(c1)CCN3C(=O)CC2`, the solubility (kinetic) is over 40.9 µg/mL.

Compound `CCC1(OC(=O)c2ccccc2)CC(C)N(C)CC1C.Cl` (stereo not given) had a kinetic solubility of 30.3 µg/mL.

For `O=C(NCC1CCCCC1)c1cccc(-c2ccc(O)cc2)c1`, the solubility (kinetic) is under 0.7 µg/mL.

On to `CN1CCN(c2nc(Nc3ccccc3)nc(N)c2[N+](=O)[O-])CC1`, for which the kinetic solubility was 47.5 µg/mL (≈ 144 µM).

`N=C1SCC(=O)N1c1ccc(Cl)cc1`: the solubility (kinetic) was over 34 µg/mL.

Compound `Cc1ccc(C(=O)NCCCN2CCOCC2)cc1Cl` had a solubility (kinetic) of 42.5 µg/mL (≈ 143 µM).

In turn, `O=C(CCNS(=O)(=O)c1ccc(Cl)cc1)N1CCCC1` yielded a kinetic solubility of over 47.5 µg/mL.

Take `Cc1ccc2oc(C(=O)NCC3CCOCC3)c(C)c2c1`: the kinetic solubility is 42.8 µg/mL (≈ 149 µM).

`Cc1cccc(NC(=O)CN2CCCCCC2)c1` displayed a kinetic solubility of 25.8 µg/mL (≈ 105 µM).

Compound `Cc1nc(-c2noc(-c3ccccc3Cl)n2)c(C(F)(F)F)o1` yielded a kinetic solubility of 0.6 µg/mL (≈ 1.82 µM).

Compound `COc1ccccc1NS(=O)(=O)c1cccc(C(=O)N2CCCC2)c1` showed a solubility (kinetic) of over 54.1 µg/mL.

With `O=C1CCCN1CC(O)CS(=O)(=O)Cc1ccccc1Cl` (stereo not given), the solubility (kinetic) is over 49.8 µg/mL.

Turning to `CC(C)c1ccc(NC2CCCN(C(=O)c3cccnc3)C2)cc1` (stereo not given), the solubility (kinetic) is over 48.5 µg/mL.

As to `CC1Oc2ccccc2N(Cc2ccc(F)cc2)C1=O` (stereo not given), the solubility (kinetic) stood at 23.4 µg/mL (≈ 86.3 µM).

In turn, `Oc1ccc(C2Nc3cccc4cccc(c34)N2)cc1` had a solubility (kinetic) of over 39.3 µg/mL.

On to `CCOC(=O)N1CCN(c2cc(NCCO)c([N+](=O)[O-])c3nonc23)CC1`, for which the kinetic solubility came to 5.9 µg/mL (≈ 15.5 µM).

`CCC(NC(=S)NC1CCCCC1)c1ccc(C)cc1` (stereo not given) displayed a solubility (kinetic) of 5.3 µg/mL (≈ 18.2 µM).

`O=C(COc1ccccc1Cl)Nc1nc(-c2ccncc2)cs1` had a kinetic solubility of 11.4 µg/mL (≈ 33 µM). Compared with the last compound, the solubility kinetic is about 2.2-fold higher.

As for `Cc1ccc(C(=O)Oc2ccccc2N2CCOCC2)cc1`, the solubility (kinetic) came out at 4.9 µg/mL (≈ 16.5 µM).

`CCc1nc(NC(=O)Cc2csc(C)n2)sc1C(=O)OC`: the kinetic solubility was over 48.8 µg/mL.

`CC(CCc1ccccc1)NCC(O)c1cccc([N+](=O)[O-])c1.Cl` (stereo not given) yielded a solubility (kinetic) of over 52.6 µg/mL.

`CC(C)C(=O)NC(=O)COC(=O)/C=C/c1cccs1` returned a solubility (kinetic) of 21.6 µg/mL (≈ 76.8 µM).

The compound `CNC(=S)N1CCN(CCNC2=CC(=O)CC(C)(C)C2)CC1` had a kinetic solubility of 44.4 µg/mL (≈ 137 µM).

On to `COc1ccc(CCN)cc1O.Cl`, for which the kinetic solubility is over 30.6 µg/mL.

As for `Cc1ccc(C(=O)NCc2cccnc2)o1`, the kinetic solubility was over 32.4 µg/mL.

Turning to `O=[N+]([O-])c1ccc(C(O)C(CO)NC(=S)Nc2ccccc2)cc1` (stereo not given), the solubility (kinetic) is over 52.1 µg/mL.

Turning to `Cc1cc(C)nc(/N=C(\N)Nc2ccc(C(C)C)cc2)n1`, the solubility (kinetic) was over 42.5 µg/mL.

Take `O=C(CNS(=O)(=O)c1ccccc1)Nc1ccc(F)cc1F`: the solubility (kinetic) was over 48.9 µg/mL.

In turn, `O=C(NCCN1CCOCC1)C(=O)c1c[nH]c2ccccc12` came in with a solubility (kinetic) of over 45.2 µg/mL.

`COc1ccc(/C=C/C(=O)N2CCCc3ccccc32)c(OC)c1`: the solubility (kinetic) was found to be 6.7 µg/mL (≈ 20.7 µM).

`CC(C)(C)[C@]1(O)CCN2C[C@H]3c4ccccc4CCc4cccc(c43)[C@@H]2C1.Cl` showed a kinetic solubility of 59.3 µg/mL. Compared with the last compound, the solubility kinetic is about 8.9-fold higher.

Consider `O/N=C(/c1ccc(F)cc1)C1CC1c1c(F)cccc1Cl` (stereo not given), for which the solubility (kinetic) is 5 µg/mL (≈ 16.2 µM). Compared with the last compound, the solubility kinetic is about 12-fold lower.

`CSc1nsc(NC(=O)Nc2ccccc2)n1` registered a solubility (kinetic) of 21.2 µg/mL (≈ 79.6 µM).

`O=C(O)c1csc(-c2ccc(Cl)cc2)n1` gave a kinetic solubility of over 36 µg/mL.

Compound `CC(=O)Nc1c2c(nn1-c1cccc(Cl)c1)CS(=O)(=O)C2` displayed a kinetic solubility of over 48.9 µg/mL.

`COc1ccc(Cl)cc1NC(=O)NCc1cccnc1` came in with a kinetic solubility of over 43.8 µg/mL.

`S=C(NCC1CCCO1)N1CCc2ccccc2C1` (stereo not given) gave a solubility (kinetic) of over 41.5 µg/mL.

On to `COc1ccc([N+](=O)[O-])cc1NC(=O)COC(=O)c1ccccn1`, for which the kinetic solubility worked out at 20.9 µg/mL (≈ 63.1 µM).

For `COC(=O)c1ccc(COC(=O)CSCC(=O)Nc2ccc(C)cc2C)cc1`, the solubility (kinetic) was found to be 16 µg/mL (≈ 39.9 µM).

On to `CC1CCCC(NC(=O)c2ccc3c(c2)OCCO3)C1C` (stereo not given), for which the solubility (kinetic) is over 43.4 µg/mL.

Consider `O=C(NCC(=O)N1CCc2ccccc2C1)c1ccccc1Cl`, for which the solubility (kinetic) is over 49.3 µg/mL.

`c1ccc(SSc2ccccn2)nc1` had a kinetic solubility of 25.5 µg/mL (≈ 116 µM).

Consider `O=C(CCl)c1ccc2[nH]c(=O)oc2c1`, for which the kinetic solubility is over 31.7 µg/mL.

Regarding `CSc1nccc(NC(=O)c2cccc(Br)c2)n1`, the solubility (kinetic) came to 2.5 µg/mL (≈ 7.71 µM).

The compound `O=S(=O)(Nc1ccc2ccccc2n1)c1ccccc1` gave a solubility (kinetic) of over 42.6 µg/mL.

Regarding `O=[N+]([O-])c1cccc(CN2CCN(c3cccc4[nH]ccc34)CC2)c1`, the solubility (kinetic) came out at 44 µg/mL (≈ 131 µM).

The compound `COc1cccc(-c2cc(C(=O)NC3CC3)c3ccccc3n2)c1` yielded a kinetic solubility of 5.6 µg/mL (≈ 17.6 µM).

`CCC(C)Nc1cc(C)c(C#N)c2nc3ccccc3n12` (stereo not given) showed a solubility (kinetic) of 3.7 µg/mL (≈ 13.3 µM).

The compound `Cc1cc(NC(=O)CC(C)C)c(=O)n(Cc2ccccc2F)c1` came in with a solubility (kinetic) of 37.3 µg/mL (≈ 118 µM).

Regarding `Cc1noc(C)c1C(=O)Nc1nc(-c2ccc(F)c(F)c2)cs1`, the kinetic solubility turned out to be 4.8 µg/mL (≈ 14.3 µM). Against the preceding compound, the solubility kinetic is about 7.8-fold lower.

With `CCOc1cccc(-c2nnc(SCC(=O)NC3CC3)n2C)c1`, the kinetic solubility is over 49.9 µg/mL.

`O=C(CN1CCN(c2ccccc2)CC1)Nc1scc2c1c(=O)oc1ccccc12`: the kinetic solubility was under 0.3 µg/mL.

Consider `COC(=O)c1ccc(C(=O)OC)c(NC(=O)CN2CCC(C)CC2)c1`, for which the solubility (kinetic) was found to be 0.6 µg/mL (≈ 1.72 µM).

In turn, `Cc1ccc(S(=O)(=O)CC(=O)N2CCOCC2)cc1` came in with a kinetic solubility of over 42.5 µg/mL.

Compound `COc1cccc(CN(C)CC2CCCN(CCc3ccc(Cl)cc3)C2)c1OC` (stereo not given) displayed a kinetic solubility of 53.3 µg/mL (≈ 128 µM).

Consider `Cc1cc2nc3c(nc2cc1C)CCCC3`, for which the kinetic solubility turned out to be 24.2 µg/mL (≈ 114 µM).

Turning to `O=C1NC(=Nc2ccc(F)cc2)CS1`, the kinetic solubility was over 31.5 µg/mL.

The compound `CCc1cccc(C)c1NC(=O)COC(=O)CC1CCCC1` came in with a solubility (kinetic) of 15.7 µg/mL (≈ 51.7 µM).

The compound `CSc1ncc(Cl)c(C(=O)Nc2c(C)cccc2C)n1` returned a solubility (kinetic) of 2.3 µg/mL (≈ 7.47 µM).
